In patent US7714140B2, “1,2 Benzoisothiazole derivative, and agricultural or horticultural plant disease- controlling agent” (Kumiai Chemical Industry, Co. Ltd., priority 2006, dated 2010):

Tests used:
Pyricularia oryzae = type: in vivo; conditions: paddy rice (Aichi Asahi), root treatment with wettable powder, active ingredient 30 g per 10 ares; inoculated 26 days after treatment; lesions counted 8 days after inoculation
[1] = system: Colletotrichum orbiculare; assay: Test for preventive effect for cucumber anthracnose; conditions: cucumber (Sagamihanjiro), soil drench 10 ml, inoculated 7 days later, lesions counted 7 days after
Description: Four cucumber seeds (variety: Sagamihanjiro) were sowed in a plastic cup of 5.5 cm in diameter, at a depth of 2 cm, and were grown in a greenhouse for 7 days. […] 10 ml of the dilution was poured into the soil at the root of young cucumber seedlings having cotyledons. 7 days later, a conidia suspension (10^5 to 10^6/ml) of Colletotrichum orbiculare which had been cultured in a PDA plate medium, was uniformly inoculated to the cucumber plant by hand spraying. The cup was allowed to stand in a moist chamber of 25° C. for 24 hours. Then, the cup was allowed to stand on a basin in a glass greenhouse and, 7 day later, the number of lesions of all cotyledons in pot was examined. A protective value was calculated from the expression 1 and evaluated according to the standard of Table 2.
Using a comparative compound shown below, a wettable powder was prepared according to Example 5. A control number thereof was calculated in the same manner as in the above Test Example.

[2] = concentration of active ingredient 1 ppm
[3] = concentration of active ingredient 10 ppm

## O=S1(=O)N=C(OCc2ccncc2)c2ccccc21 [Comparative compound 1, reference compound]
Pyricularia oryzae
  Evaluation (protective value): C (protective value: less than 80.0% to 50.0% or more)
[1]; [2]
  Evaluation (protective value): D (protective value: less than 50.0%)
[1]; [3]
  Evaluation (protective value): B (protective value: less than 90.0% to 80.0% or more)

## O=S1(=O)N=C(OCc2snc(Cl)c2Cl)c2ccccc21 [Compound No. 1, 3-(3,4-dichloroisothiazol-5-ylmethoxy)-1,2-benzoisothiazole 1,1-dioxide]
Pyricularia oryzae
  Evaluation (protective value): B (protective value: less than 90.0% to 80.0% or more)
[1]; [2]
  Evaluation (protective value): A (protective value: 100% to 90.0% or more)
[1]; [3]
  Evaluation (protective value): A (protective value: 100% to 90.0% or more)

## C=CCOC1=NS(=O)(=O)c2ccccc21 [Probenazole, reference compound]
Pyricularia oryzae
  Evaluation (protective value): C (protective value: less than 80.0% to 50.0% or more)

## Cc1cc(COC2=NS(=O)(=O)c3ccccc32)sn1 [compound 5, 3-(3-methylisothiazol-5-ylmethoxy)-1,2-benzoisothiazole 1,1-dioxide]
other
  melting point: 202 to 204 °C
Pyricularia oryzae
  Evaluation (protective value): B (protective value: less than 90.0% to 80.0% or more)
[1]; [2]
  Evaluation (protective value): D (protective value: less than 50.0%)
[1]; [3]
  Evaluation (protective value): A (protective value: 100% to 90.0% or more)
